Laboratory results reported in patent US20250017207A1 (priority 2021, published 2025).
In brackets after ≈: the same amount, converted by molar mass.

Experiments:
Type in all cases: cell-based
[1] = system: Gibberella fujikuroi; assay: microbe, parasite or virus in culture; conditions: Fusarium fujikuroi, 72 h, read-out: EC50 Value
[2] = system: Fusarium graminearum; assay: microbe, parasite or virus in culture; conditions: 72 h, read-out: EC50 Value
[3] = system: Fusarium proliferatum; assay: Petri plate test, inhibition of mycelial growth (NY/T 1156.2-2006); conditions: 72 h, mycelial growth on PDA plates, 25° C., three days in darkness
From the text: Certain mixture compositions according to the present invention may show a synergistic effect. This occurs whenever the action of an active ingredient combination is greater than the sum of the actions of the individual components. The combined toxicity of two agents can be evaluated by the Co-Toxicity Coefficient (CTC) according to the Sun-YP method (Yun-Pei, Sun. “Toxicity Index-An Improved Method of Comparing the Relative Toxicity of Insecticides.” Journal of Economic Entomology 1(1950):45-53.). A CTC value of less than 80 indicates an antagonistic effect, a CTC value of 80-120 indicates an additive effect, and a CTC value of greater than or equal to 120 indicates a synergistic effect.
Component A represents standard Al, and component B represents the component to be mixed with the standard Al. • ATI (Measured toxicity index of a mixture)=(Standard Al's EC50/Mixture's EC50)*100 • TTI (Theoretical toxicity index of a mixture)=(TIA*PA+TIB*PB)*100 • TIA (Toxicity index of component A)=the EC50 of component A/the EC50 of component A • PA: Percentage of component A in the mixture • TIB (Toxicity index of component B)=the EC50 of component A/the EC50 of component B • PB: Percentage of component B in the mixture […]

## CCOC(=O)/C(C#N)=C(\N)c1ccccc1 [PHM, (Z)-ethyl 2-cyano-3-amino-3-phenylacrylate]
[1]
  EC50: 0.197 µg/mL (≈ 0.91 µM)
[2]
  EC50: 0.0307 µg/mL (≈ 0.142 µM)
[3]
  EC50: 3.08 µg/mL

## O=C(N[C@@H]1CC[C@@H]1c1ccc(Cl)cc1Cl)c1cccnc1C(F)(F)F [cylcobutrifluram, N-[(1,2 cis)-2-(2,4-dichlorophenyl)cyclobutyl]-2-(trifluoromethyl)pyridine-3-carboxamide]
[1]
  EC50: 0.75 µg/mL (≈ 1.93 µM)
[2]
  EC50: 0.0222 µg/mL (≈ 0.057 µM)
[3]
  EC50: 0.882 µg/mL
